Structures can show the parent of a compound that is named as a salt.
Legend:
[1] = Aerosol performance of DPI formulations (Cyclohaler, NGI); assay type: physicochemical; settings: for †Measured Mass of 1% w/w Blend Delivered per capsule / ††RPL554 Emitted (μg) per capsule (B): Cyclohaler; for †Measured Mass of 1% w/w Blend Delivered per capsule: 5 capsules containing 20 mg powder blend, mass from weight change of capsule-loaded device; for ††RPL554 Emitted (μg) per capsule (B): NGI, mass determined from HPLC analysis of recovered samples; for ††RPL554 Emitted (μg) per capsule (B) / Calculated RPL554 Content (μg) per capsule (A): as RPL554 base; for Calculated RPL554 Content (μg) per capsule (A): calculated from delivered blend mass and measured blend content
Procedure: Capsules were hand filled with 20 mg of the 1% w/w RPL554 free base or salt variants: lactose blends, i.e. 200 μg salt per capsule, the fill weight of each capsule was recorded. Due to differences in the molecular weights of the RPL554 salt forms, the amount of RPL554 emitted per actuation varied as a function of molecular weight. The formulations were prepared with no adjustment for differences in molecular weight of the salts.
The powders were delivered via the Cyclohaler® DPI (PCH Pharmachemie, BV, The Netherlands). The Cyclohaler® DPI is a low resistance device and was operated at a flow rate of 90 L/min for 2.7 seconds. The cut off diameters for the NGI collection stages were calculated for the 90 L/min flow rate using the NGI User Guide (MSP Corporation, 2008).
The ED, FPD and FPF were determined from inertial impaction tests performed following the deposition of 5 capsules of each formulation into the NGI. For each capsule tested the combined weight of the Cyclohaler® and capsule was determined before and after operation to check that the dose had been delivered. The NGI was fitted with a pre-separator for these determinations. The central cup of the pre-separator was filled with 15 mL of diluent. Following deposition, the solution was recovered in a 20 mL volumetric flask and made up to volume with diluent. RPL554 was quantitatively recovered from the device, induction port and each of the NGI collection stages with 10 mL of diluent.
The volume of diluent used for each sample was selected to ensure RPL554 concentrations were above the limit of quantitation.

[2] = Primary particle size analysis by laser light diffraction (Mastersizer 2000); assay type: physicochemical; settings: micronised, mean n=3
Procedure: A Mastersizer 2000 fitted with a Scirocco 2000 dry powder dispersion unit (Malvern Instruments Ltd, UK) was used to analyse the primary particle size of the micronised RPL554 and salt variants. The salts (50 mg) were automatically sampled via a vibrating feed control at a feeder rate of 60% and dispersed in compressed air at a pressure of 3 bar.

[3] = Physico-chemical characteristics of salt candidates: solubility in water, pH of aqueous suspension/solution, form post water maturation
Procedure: The physico-chemical characteristics of the salt candidates were determined.

[4] = RPL554 content and content uniformity of 1% w/w lactose powder blends; assay type: physicochemical; settings: for Measured Blend Content (% Theoretical): 1% w/w RPL554 variant: lactose powder blend, expressed as RPL554 base; for **Adjusted RPL554 Content per capsule: per 20 mg capsule of 1% w/w lactose blend, adjusted for measured blend content (% theoretical), as RPL554 base
Procedure: Batches (approximately 5 g) of 1% w/w RPL554 free base or salt variants: lactose blends were prepared. In brief, the RPL554 free base or salt plus a small quantity of lactose was passed through a 38 μm sieve. The sieved material plus the remaining lactose was mixed in a glass mortar prior to transfer to a stainless steel screw cap jar and further mixing (10 minutes at 46 rpm) conducted using a Turbula blender. The composition of the dry powder blend was 0.05 g API and 4.95 g lactose.
In order to determine the content uniformity of the blends, aliquots (approx. 20 mg) of powder were sampled from each blend, accurately weighed, and diluted to volume in 10 mL volumetric flasks with diluent. The flasks were sonicated for 3 minutes before samples were transferred to HPLC vials for analysis.

[5] = Solubility of RPL554 salts in saline solutions, water and aqueous buffer solutions at 25° C. (HPLC); assay type: physicochemical; settings: 24 hours; for Solubility as RPL554 (mg/ml) in Water: deionised water
Procedure: The behaviour of salts of RPL554 were examined under the following conditions: • Phosphate buffered to pH 3.5 in saline, 0.9% w/w at 25° C. • Acetate buffered to pH 4.5 in saline, 0.9% w/w at 25° C. • Citro-Phosphate buffered to pH 4.5 in saline, 0.9% w/w at 25° C. • Phosphate buffered to pH 6.5 in saline, 0.9% w/w at 25° C. • Saline, 0.7, 0.9 and 1.1% w/w at 25° C. • Deionised water at 25° C.
RPL554 salts and RPL554, ca 50 mg, were suspended in the various aqueous media, 1 ml, with agitation at the specified temperatures for 24 hours. The solids were isolated and dried in vacuo at 45° C. The retained filtrates were examined by HPLC.
Additional RPL554 methane sulfonate salt, ca 50 mg, was charged to the water mixtures at 25° C. and 37.5° C. in order to afford a suspension. In all other cases, suspensions were obtained.
The solubility of the RPL554 was determined by HPLC using a single point calibration and is expressed as RPL554 and not as the salt and are detailed in Table 6 and Table 7 for the various conditions utilised.

[6] = Solubility of RPL554 and salts in pMDI propellant systems; assay type: physicochemical; settings: for Estimated RPL554 solubilised (%) / Estimated Solubilised RPL554 μg per 50 μL actuation / Solubility RPL554: in HFA 134 with Ethanol/Tween
Procedure: Quantitative assessment of the solubility of RPL554 and salt variants in the propellant systems of selected pMDI formulations (three replicates of each formulation) was performed. pMDIs were directly coupled to an adaptor fitted with a 0.20 μm filter unit connected, in series to a 21 G needle, which was inserted via a rubber septum, into a cooled multi-dose glass vial. A 19 G filter needle was inserted through the septum to aid evaporation of propellant from the vial. Prior to the filtration process the vial was cooled in a mixture of dry ice and acetone to ensure that the pressure within the vial was reduced in order to facilitate collection of the output from the pMDI. Ten consecutive actuations of the pMDI were fired through the filter and collected in the vial. Between actuations the canister was shaken for approximately 10 seconds. The pMDI unit was weighed before and after the filtering procedure. The filtrate was stored at room temperature and allowed to evaporate to dryness.
Samples were recovered by carefully rinsing the inside of the vials with 1 mL of recovery solution before transfer to HPLC vials for analysis. The estimated % of RPL554 solubilised within the canister was calculated from the starting mass of RPL554 within the canisters, which in turn was calculated using the theoretical molecular weight values of the RPL554 free base and salt variants shown in Table 13. The theoretical molecular weight estimates of the salts were provided by Verona.

[7] = Intrinsic dissolution of compressed tablet, pH 7.0, 37° C. (Sirius inForm); assay type: physicochemical; settings: for Mass of salt (μg) dissolved after 2 hours, Average / Mass of salt (μg) dissolved after 2 hours, Test 1 / Mass of salt (μg) dissolved after 2 hours, Test 2: pH 7.0, 0.15 M NaCl, 37° C.; for mass dissolved: before precipitation
Procedure: The dissolution assay (pH-dependent sample dissolution) was investigated using the Sirius inForm.
Dissolution of a compressed tablet of the compound was monitored in a pH 7.0 aqueous dissolution experiment (0.15 M NaCl) at 37° C. using UV-absorption spectroscopy in 2 hour experiments. A tablet with a diameter of 3 mm, requiring approximate weights of 10 mg was compressed under a weight of 100 kg load force. Only one face of the tablet was exposed to the dissolution medium, which contained a 0.01 M acetate/phosphate buffer system to minimise perturbation of the experimental pH from dissolution of the drug.
Stirring of the solution was continuous and at a constant rate of 100 rpm. The absorption data was converted to absolute sample weights using previously determined, pH-dependent, molar extinction coefficients. An appropriate wavelength range was chosen to ensure that spectroscopic data with an absorption value of <1.3 was analysed, avoiding erroneous dissolution results due to saturation of the UV light source.

[8] = listed as hydrobromide salt, hydrobromide
[9] = listed as methanesulfonate salt

COc1cc2c(cc1OC)-c1c/c(=N\c3c(C)cc(C)cc3C)n(CCNC(N)=O)c(=O)n1CC2 [Hydrobromide, RPL554 hydrobromide]
†Measured Mass of 1% w/w Blend Delivered per capsule ([1]; hydrobromide): 19.96 mg
††RPL554 Emitted (μg) per capsule (B) ([1]; hydrobromide): 104.28 µg
Calculated RPL554 Content (μg) per capsule (A) ([1]; hydrobromide): 142.29 µg
D (0.1) (μm) ([2]; hydrobromide): 0.64 μm
D (0.5) (μm) ([2]; hydrobromide): 1.52 μm
D (0.9) (μm) ([2]; hydrobromide): 3.23 μm
pH of aqueous suspension/solution ([3]; listed as HBr, hydrobromide): 3.20
Measured Blend Content (% Theoretical) ([4]; hydrobromide): 83.37 % Theoretical
**Adjusted RPL554 Content per capsule ([4]; hydrobromide): 142.58 µg
Solubility as RPL554 (mg/ml) in 0.7 w/w % Saline ([5]; hydrobromide): 0.95 mg/mL
Solubility as RPL554 (mg/ml) in 0.9 w/w % Saline ([5]; hydrobromide): 0.82 mg/mL
Solubility as RPL554 (mg/ml) in 1.1 w/w % Saline ([5]; hydrobromide): 0.66 mg/mL
Solubility as RPL554 (mg/ml) in Water ([5]; hydrobromide): 3.43 mg/mL
Solubility RPL554 (μg/g) ([6]; in HFA 134, BLQ = below limit of quantitation (0.06 μg/mL), hydrobromide): BLQ
Calculated RPL554 solubilised (%) ([6]; in HFA 134, hydrobromide): BLQ
Calculated Solubilised RPL554 μg per 50 μL actuation ([6]; in HFA 134, hydrobromide): BLQ
Estimated RPL554 solubilised (%) ([6]; hydrobromide): 3.74%
Estimated Solubilised RPL554 μg per 50 μL actuation ([6]; hydrobromide): 6.40 µg
Solubility RPL554 ([6]; hydrobromide): 96.27 µg/g
Mass of salt (μg) dissolved after 2 hours, Average [7, 8]: 35.3 µg
Mass of salt (μg) dissolved after 2 hours, Test 1 [7, 8]: 30.4 µg
Mass of salt (μg) dissolved after 2 hours, Test 2 [7, 8]: 40.1 µg

COc1cc2c(cc1OC)-c1c/c(=N\c3c(C)cc(C)cc3C)n(CCNC(N)=O)c(=O)n1CC2 [Methanesulfonate, RPL554 methanesulfonate]
†Measured Mass of 1% w/w Blend Delivered per capsule [1]: 19.96 mg
††RPL554 Emitted (μg) per capsule (B) [1]: 118.69 µg
Calculated RPL554 Content (μg) per capsule (A) [1]: 164.72 µg
D (0.1) (μm) [2]: 0.45 μm
D (0.5) (μm) [2]: 1.20 μm
D (0.9) (μm) [2]: 3.46 μm
pH of aqueous suspension/solution ([3]; listed as Methane sulfonic): 2.69
Measured Blend Content (% Theoretical) [4]: 99.13 % Theoretical
**Adjusted RPL554 Content per capsule [4]: 165.05 µg
Solubility as RPL554 (mg/ml) in 0.7 w/w % Saline [5]: 5.01 mg/mL
Solubility as RPL554 (mg/ml) in 0.9 w/w % Saline [5]: 3.73 mg/mL
Solubility as RPL554 (mg/ml) in 1.1 w/w % Saline [5]: 2.52 mg/mL
Solubility as RPL554 (mg/ml) in Water [5]: 44.52 mg/mL
Calculated RPL554 solubilised (%) ([6]; in HFA 134): BLQ
Calculated Solubilised RPL554 μg per 50 μL actuation ([6]; in HFA 134): BLQ
Solubility RPL554 (μg/g) ([6]; in HFA 134, BLQ = below limit of quantitation (0.06 μg/mL)): BLQ
Estimated RPL554 solubilised (%) [6]: 11.64%
Estimated Solubilised RPL554 μg per 50 μL actuation [6]: 19.38 µg
Solubility RPL554 [6]: 298.07 µg/g
Solubility RPL554 ([6]; listed as methanesulfonate): 298 µg/g
Calculated RPL554 solubilised (%) ([6]; in HFA 227): BLQ
Calculated Solubilised RPL554 μg per 50 μL actuation ([6]; in HFA 227): BLQ
Solubility RPL554 (μg/g) ([6]; in HFA 227): BLQ
dissolution compared with free base / other salts ([7]; 2 hour experiments): higher dissolution than the rest of the salts
mass dissolved ([7]; at 8.5 min): 3960 µg
mass dissolved ([7]; at 11 min): 5200 µg
maximum pH change (decrease) during dissolution ([7]; nominal start pH 7): about 0.1 pH units
Mass of salt (μg) dissolved after 2 hours, Average [7, 9]: 225 µg
Mass of salt (μg) dissolved after 2 hours, Test 1 [7, 9]: 160 µg
Mass of salt (μg) dissolved after 2 hours, Test 2 [7, 9]: 290 µg

Reference: patent US11491155B2, “Salt of a pyrimido[6,1-A]isoquinolin-4-one compound” (VERONA PHARMA PLC, priority 2015, dated 2022)
